Key:
[1] = molecular target: T1, RIPK1 (Homo sapiens, UniProt Q13546); test: Immunoblotting of TNFα induced phospho-RIPK1 (ser 166) levels; format: cell-based; conditions: HMC3 cells; Z-VAD-FMK, human TNFα 20 ng/ml, SM-164 100 nM; 7 h, serum free media; read-out: Cell-base RIPK1 activity: phspho-RIPK1 (Ser166)
T1 construct: endogenous in cells; host or cells: HT-29 (KCLB 30038)
T1 sequence (Q13546 1-671): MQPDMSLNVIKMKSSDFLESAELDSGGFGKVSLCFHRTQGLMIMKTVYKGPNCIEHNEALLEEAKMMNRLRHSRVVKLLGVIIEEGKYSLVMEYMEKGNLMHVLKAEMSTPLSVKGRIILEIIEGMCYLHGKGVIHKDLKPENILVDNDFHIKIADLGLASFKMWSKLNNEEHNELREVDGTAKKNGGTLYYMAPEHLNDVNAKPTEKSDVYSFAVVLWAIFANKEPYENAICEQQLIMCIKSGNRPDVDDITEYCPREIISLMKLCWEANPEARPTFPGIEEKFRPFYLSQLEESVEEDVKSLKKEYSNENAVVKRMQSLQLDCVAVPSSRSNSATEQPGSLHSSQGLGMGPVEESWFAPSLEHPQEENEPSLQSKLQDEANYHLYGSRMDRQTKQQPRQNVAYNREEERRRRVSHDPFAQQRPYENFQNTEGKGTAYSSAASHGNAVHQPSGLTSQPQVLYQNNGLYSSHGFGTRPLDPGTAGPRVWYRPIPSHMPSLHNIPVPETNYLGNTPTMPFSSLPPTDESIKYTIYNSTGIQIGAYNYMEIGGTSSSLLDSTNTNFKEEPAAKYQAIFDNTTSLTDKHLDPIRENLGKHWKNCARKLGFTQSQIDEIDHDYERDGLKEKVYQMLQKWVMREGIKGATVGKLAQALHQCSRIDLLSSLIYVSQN
Protocol: (§1) Human colon carcinoma cell HT-29 (KCLB 30038), BV2 mouse microglial cell (cell was a kind gift from Dr. Nak-Yun Sung, Senior researcher at Korea Prime Pharmacy CO., LTD.) and human microglial cell HMC3 (ATCC® CRL-3304™). HT-29 cell was grown in Roswell Park Memorial Institute (RPMI) 1640, BV2 cell was grown in Dulbecco's Modified Eagle's Medium (DMEM) and HMC3 cell was grown in Minimum Essential Media Eagle (MEM) supplemented with 10% fetal bovine serum and 1% mixture of penicillin and streptomycin (Gibco). Cells were maintained at 37° C. in a humidified 5% CO2 atmosphere.
Biological activity of the compounds of RIPK1 inhibitor was determined by measuring their ability to inhibitor TNFα induced phospho-RIPK1 (ser 166) levels, phospho-RIPK3 levels, phospho-MLKL levels in HMC3 cells. Cells were pretreated with Z-VAD-FMK […]. After 30 min, human TNFα 20 ng/ml, SM-164 100 nM and RIPK1 inhibitor (0.1, 1, 10 nM) were treated for 7 h under serum free media. Cells were lysed with cold lysis buffer containing 25 mM HEPES pH 7.6, […] NaCl, 1% NP40, 1% sodium deoxycholate, 0.1% SDS, and protease inhibitor mixture (Bimake, Houston, USA) using sonicators. The cells were centrifuged at 15,000 rpm, 4° C. for 5 min. After protein concentration of the lysates (supernatants) was quantified using BCA assay (Thermo Fisher Scientific, Waltham, USA), lysates were mixed with LDS sample buffer and heating at […] for 10 min. (Invitrogen, California, USA). […] The membranes are placed in an image analyzer (Imagequant, LAS 500, GE Healthcare), connected to a computer which allows the image generation (software Image reader LAS 500).

[2] = molecular target: T1, RIPK1; test: Cell-based necroptosis assay for RIPK1 activity (cell viability by CCK-8); conditions: HT-29 cells; Z-VAD-FMK 20 μM, human TNFα 10 ng/ml, SM-164 100 nM; 24 h; read-out: Cell-base RIPK1 activity: Necroptosis
Protocol: as §1
To measure the activity of RIPK1 inhibitor in necroptotic cells, HT-29 cells were treated by control DMSO, human TNFα (Peprotech, Rocky Hill, USA), SM-164 (Biovision, California, USA) and a pan-caspase inhibitor Z-VAD-FMK (Invivogen, San Diego, USA). Cells were pretreated with Z-VAD-FMK 20 μM. After 30 min, human TNFα 10 ng/ml, SM-164 100 nM and RIPK1 Inhibitor (0.0001, 0.001, 0.01, 0.02, 0.05, 0.1, 1, 10 uM) were treated for 24 h. Cell viability was measured by Cell Counting Kit 8 (CCK-8) (Dong-in, Seoul, Korea).

| IC50 [1] [nM] | SMILES | IC50 [2] [nM] |
| --- | --- | --- |
| < 10 | CN1C(=O)[C@@H](NC(=O)n2cc(Cc3cccc(F)c3)cn2)COc2ccc(OCCCC(C)(C)O)cc21 [Example 26, (S)-4-(3-fluorobenzyl)-N-(7-((4-hydroxy-4-methylpentyl)oxy)-5-methyl-4-oxo-2,3,4,5-tetrahydrobenzo[b][1,4]oxazepin-3-yl)-1H-pyrazole-1-carboxamide] | < 10 |
| < 10 | CN1C(=O)[C@@H](NC(=O)n2cc(Cc3cccc(F)c3)cn2)COc2ccc(OCC(=O)N3CCC(O)CC3)cc21 [Example 40, (S)-4-(3-fluorobenzyl)-N-(7-(2-(4-hydroxypiperidin-1-yl)-2-oxoethoxy)-5-methyl-4-oxo-2,3,4,5-tetrahydrobenzo[b][1,4]oxazepin-3-yl)-1H-pyrazole-1-carboxamide] | < 10 |
| < 10 | CN1C(=O)[C@@H](NC(=O)n2cc(Cc3cccc(F)c3)cn2)COc2ccc(C(=O)N3CCC(O)CC3)cc21 [Example 4, (S)-4-(3-fluorobenzyl)-N-(7-(4-hydroxypiperidine-1-carbonyl)-5-methyl-4-oxo-2,3,4,5-tetrahydrobenzo[b][1,4]oxazepin-3-yl)-1H-pyrazole-1-carboxamide] | 10 to 50 |
| < 10 | CN1C(=O)[C@@H](NC(=O)n2cc(Cc3cccc(F)c3)cn2)COc2ccc(OCC(=O)N3CCC(C(C)(C)O)C3)cc21 (stereo partly drawn) [Example 48, 4-(3-fluorobenzyl)-N-((3S)-7-(2-(3-(2-hydroxypropan-2-yl)pyrrolidin-1-yl)-2-oxoethoxy)-5-methyl-4-oxo-2,3,4,5-tetrahydrobenzo[b][1,4]oxazepin-3-yl)-1H-pyrazole-1-carboxamide] | < 10 |
| < 10 | CN1C(=O)[C@@H](NC(=O)n2cc(Cc3cccc(F)c3)cn2)COc2ccc(OCc3nc(C(C)(C)O)cs3)cc21 [Example 66, (S)-4-(3-fluorobenzyl)-N-(7-((4-(2-hydroxypropan-2-yl)thiazol-2-yl)methoxy)-5-methyl-4-oxo-2,3,4,5-tetrahydrobenzo[b][1,4]oxazepin-3-yl)-1H-pyrazole-1-carboxamide] | < 10 |
| < 10 | CN1C(=O)[C@@H](NC(=O)n2cc(Cc3cccc(F)c3)cn2)COc2ccc(OCCOCCO)cc21 [Example 19, (S)-4-(3-fluorobenzyl)-N-(7-(2-(2-hydroxyethoxy)ethoxy)-5-methyl-4-oxo-2,3,4,5-tetrahydrobenzo[b][1,4]oxazepin-3-yl)-1H-pyrazole-1-carboxamide] | < 10 |
| < 10 | CN1C(=O)[C@@H](NC(=O)n2cc(Cc3cccc(F)c3)cn2)COc2ccc(OCC(O)c3cccnc3)cc21 (stereo partly drawn) [Example 70, 4-(3-fluorobenzyl)-N-((3S)-7-(2-hydroxy-2-(pyridin-3-yl)ethoxy)-5-methyl-4-oxo-2,3,4,5-tetrahydrobenzo[b][1,4]oxazepin-3-yl)-1H-pyrazole-1-carboxamide] | < 10 |
| < 10 | CC(C)CCCOc1ccc2c(c1)N(C)C(=O)[C@@H](NC(=O)n1cc(Cc3cccc(F)c3)cn1)CO2 [Example 15, (S)-4-(3-fluorobenzyl)-N-(5-methyl-7-((4-methylpentyl)oxy)-4-oxo-2,3,4,5-tetrahydrobenzo[b][1,4]oxazepin-3-yl)-1H-pyrazole-1-carboxamide] | < 10 |
| < 10 | CN1C(=O)[C@@H](NC(=O)n2cc(Cc3cccc(F)c3)cn2)COc2ccc(OCc3ccc(F)cn3)cc21 [Example 58, (S)-4-(3-fluorobenzyl)-N-(7-((5-fluoropyridin-2-yl)methoxy)-5-methyl-4-oxo-2,3,4,5-tetrahydrobenzo[b][1,4]oxazepin-3-yl)-1H-pyrazole-1-carboxamide] | < 10 |
| < 10 | CN1C(=O)[C@@H](NC(=O)n2cc(Cc3cccc(F)c3)cn2)COc2ccc(C(=O)N3CCC(C)(C)CC3)cc21 [Example 2, (S)—N-(7-(4,4-dimethylpiperidine-1-carbonyl)-5-methyl-4-oxo-2,3,4,5-tetrahydrobenzo[b][1,4]oxazepin-3-yl)-4-(3-fluorobenzyl)-1H-pyrazole-1-carboxamide] | < 10 |
| < 10 | CN1C(=O)[C@@H](NC(=O)n2cc(Cc3cccc(F)c3)cn2)COc2ccc(OCCCC3(O)CCC3)cc21 [Example 28, (S)-4-(3-fluorobenzyl)-N-(7-(3-(1-hydroxycyclobutyl)propoxy)-5-methyl-4-oxo-2,3,4,5-tetrahydrobenzo[b][1,4]oxazepin-3-yl)-1H-pyrazole-1-carboxamide] | < 10 |
| < 10 | CN1C(=O)[C@@H](NC(=O)n2cc(Cc3cccc(F)c3)cn2)COc2ccc(OCC3CCOCC3)cc21 [Example 55, (S)-4-(3-fluorobenzyl)-N-(5-methyl-4-oxo-7-((tetrahydro-2H-pyran-4-yl)methoxy)-2,3,4,5-tetrahydrobenzo[b][1,4]oxazepin-3-yl)-1H-pyrazole-1-carboxamide] | < 10 |
| < 10 | CN1C(=O)[C@@H](NC(=O)n2cc(Cc3cccc(F)c3)cn2)COc2ccc(OCC(=O)N3CCCC3)cc21 [Example 44, (S)-4-(3-fluorobenzyl)-N-(5-methyl-4-oxo-7-(2-oxo-2-(pyrrolidin-1-yl)ethoxy)-2,3,4,5-tetrahydrobenzo[b][1,4]oxazepin-3-yl)-1H-pyrazole-1-carboxamide] | < 10 |
| < 10 | CN1C(=O)[C@@H](NC(=O)n2cc(Cc3cccc(F)c3)cn2)COc2ccc(OCC#CC3(O)CCCCC3)cc21 [Example 23, (S)-4-(3-fluorobenzyl)-N-(7-((3-(1-hydroxycyclohexyl)prop-2-yn-1-yl)oxy)-5-methyl-4-oxo-2,3,4,5-tetrahydrobenzo[b][1,4]oxazepin-3-yl)-1H-pyrazole-1-carboxamide] | < 10 |
| 10 to 50 | CN1C(=O)[C@@H](NC(=O)n2cc(Cc3cccc(F)c3)cn2)COc2ccc(OCC(=O)n3cc(O[Si](C)(C)C(C)(C)C)cn3)cc21 [Example 54, (S)—N-(7-(2-(4-((tert-butyldimethylsilyl)oxy)-1H-pyrazol-1-yl)-2-oxoethoxy)-5-methyl-4-oxo-2,3,4,5-tetrahydrobenzo[b][1,4]oxazepin-3-yl)-4-(3-fluorobenzyl)-1H-pyrazole-1-carboxamide] | 10 to 50 |
| < 10 | CN1C(=O)[C@@H](NC(=O)n2cc(Cc3cccc(F)c3)cn2)COc2ccc(OCc3ccccc3)cc21 [Example 56, (S)—N-(7-(benzyloxy)-5-methyl-4-oxo-2,3,4,5-tetrahydrobenzo[b][1,4]oxazepin-3-yl)-4-(3-fluorobenzyl)-1H-pyrazole-1-carboxamide] | < 10 |
| < 10 | CN1C(=O)[C@@H](NC(=O)n2cc(Cc3cccc(F)c3)cn2)COc2ccc(OCC(=O)N3CC[C@@H](O)C3)cc21 [Example 47, 4-(3-fluorobenzyl)-N—((S)-7-(2-((R)-3-hydroxypyrrolidin-1-yl)-2-oxoethoxy)-5-methyl-4-oxo-2,3,4,5-tetrahydrobenzo[b][1,4]oxazepin-3-yl)-1H-pyrazole-1-carboxamide] | < 10 |

Source: patent US20240083892A1 (BISICHEM CO., LTD., priority 2021, published 2024)
